According to patent US9357776B2, “Method for producing pest control agent” (priority 2011, dated 2016):

Key:
Plutella xylostella = assay: Test for control of diamondback moth (leaf disk); type: in vivo; details: in Brassica oleracea, foliar, 72 h, read-out: Mortality rate, Plutella xylostella
Procedure: (§1) A leaf disk having a diameter of 5.0 cm was cut out from cabbage grown in a pot. Then, a liquid agent prepared to be 50% acetone-water (to which 0.05% Tween20 was added) and to contain 500 ppm of a compound represented by formula (I) was spread over the leaf disk. After the leaf disk was air dried, second instar larvae were released on the leaf disk. After that, the leaf disk was allowed to stand in a thermostatic chamber at 25° C. (16-hour light period and 8-hour dark period). […] The test was duplicated. Mortality rate (%)=[Number of dead insects/(Number of survived insects+Number of dead insects)]×100

Aphis gossypii = assay: Test for control of cotton aphid (leaf disk); type: in vivo; details: in Cucumis sativus, foliar, 72 h, read-out: Mortality rate, Aphis gossypii
Procedure: as §1, with “2.0” for “5.0”, “cucumber (Cucumis sativus L.)” for “cabbage”, “first” for “second”

Laodelphax striatellus [1] = assay: Test for control of Laodelphax striatellus (wheat seedling root treatment); type: in vivo; details: 96 h, read-out: Mortality rate, Laodelphax striatellus
Procedure: Roots of wheat seedlings 48 hours after seeding were each treated with 200 μL of a liquid agent prepared to be 10% acetone-water, and to contain 100 ppm of a compound represented by formula (I). The agent was absorbed through the roots for 72 hours, and then 10 second instar larvae of Laodelphax striatellus were released on each wheat seedling. After that, the wheat seedlings were allowed to stand in a thermostatic chamber at 25° C. (16-hour light period and 8-hour dark period). […] The test was duplicated.

Nilaparvata lugens = assay: Test for control of Nilaparvata lugens, sensitive and resistant strains (rice soil drench); type: in vivo; details: three days after release
Procedure: (§2) Rice plant seedlings grown in a pot were treated by soil drench with a liquid agent prepared to be 10% acetone-water, and to contain a predetermined concentration of a compound of the present invention. Three days after the treatment, 10 sensitive or resistant strain of second instar larvae of Nilaparvata lugens were released on each of the rice plant seedlings. After that, the rice plant seedlings were allowed to stand in a thermostatic chamber at 25° C. (16-hour light period and 8-hour dark period). […] The test was duplicated. Mortality rate (%)=[Number of dead insects/(Number of survived insects+Number of dead insects)]×100
Note that the pests tested were as follows: Insects bred for generations in a room for a long period (sensitive strain), (I) Insects collected in Kumamoto Prefecture in 2007, and bred for generations in a room (field-collected strain: resistant strain), or (II) Insects collected in Fukuoka Prefecture in 2005, and bred for generations in a room (field-collected strain).

Laodelphax striatellus [2] = assay: Test for control of Laodelphax striatellus, sensitive and resistant strains (rice soil drench); type: in vivo; details: three days after release
Procedure: as §2, with “Laodelphax striatellus” for “Nilaparvata lugens”, “that” for “that,”
Note that the pests tested were insects bred for generations in a room for a long period (sensitive strain), and insects collected in Kumamoto Prefecture in 2006, and bred for generations in a room (field-collected strain: resistant strain).

[3] = test system: crude enzyme extraction liquid of housefly (Musca domestica); assay: In vitro metabolism test using crude enzyme extraction liquid of housefly; type: in vitro ADME; details: 25° C., 40 hours, LC/MS
Procedure: As described in Pest Management Science (2003), 59(3), 347-352, and Journal of Pesticide Science (2004), 29(2), 110-116, imidacloprid is known to be inactivated by oxidative metabolism, which is thought to be one of the mechanisms for the acquisition of the resistance. To investigate effects on insects acquiring such resistance, the following experiment was carried out.
To adult housefly (Musca domestica) (0.645 g), 10 ml of a potassium phosphate buffer (pH 7.4, containing 1 mM EDTA) was added, and the adult housefly was sufficiently ground with Physcotron (Nichion Irika Kikai Seisakusho). After that, the ground material was centrifuged under conditions of 10,000 g and 15 minutes. The obtained supernatant was further centrifuged under conditions of 100,000 g and 60 minutes. Thus, precipitates were obtained. The precipitates were dissolved in 1 ml of a potassium phosphate buffer, and this solution was used as a crude enzyme solution. The enzyme extraction operations were all conducted on ice or under a condition of 4° C.
Reagents were mixed with each other at the following ratio in a tube having a capacity of 1.5 mL, and allowed to react with each other at 25° C. for 40 hours. After the reaction, 1 mL of acetone was added to the mixture, followed by stirring. Then, the formed precipitates were removed by centrifugation at 12000 rpm for 5 minutes. […]

[4] = test system: Haemaphysalis longicornis; assay: Test for control of Haemaphysalis longicornis (dry film in glass vial); type: in vivo; details: 24 h, read-out: Mortality rate
Procedure: Into a glass vial having a capacity of 4 mL, 30 μL of an acetone solution containing 200 ppm or 10 ppm of a compound of the present invention was introduced. The vial was placed on a shaker, and air dried, while being rotated. Thus, a dry film of the compound was formed on the inner wall of the vial. After the vial was dried for 24 hours or longer, 10 larvae of Haemaphysalis longicornis were released in the vial, and then the vial was capped. The vial was allowed to stand in a thermostatic chamber under conditions of 25° C., a humidity of 85%, and total darkness. […] The test was duplicated. Mortality rate (%)=[Number of dead insects/(Number of survived insects+Number of dead insects)]×100

[5] = test system: Haemaphysalis longicornis; assay: Effect of controlling Haemaphysalis longicornis on body surface of mouse; type: in vivo; details: mouse (ICR, male), 20 μL of 1000-fold diluted drop preparation (48% by weight Compound 1 in ethanol), three days after release
Procedure: Hair on the back of a mouse (ICR, male, 5-weeks old) in a region having a diameter of approximately 2 cm was shaved, and a 15-mL polystyrene conical tube cut to have a height of approximately 1.5 cm was bonded to this region with an instant adhesive.
Then, 20 μL of a 1000-fold diluted liquid of a pest control agent prepared according to the following formulation was added dropwise onto the body surface of the mouse within the bonded tube. After sufficient drying, […] larvae of Haemaphysalis longicornis were released into the tube, and the tube was capped.
Formulation [Drop Preparation]
The components were uniformly mixed with each other, and a drop preparation was obtained. blood-sucking inhibition rate (%)=100−[Number of […]/(Number of survived ticks+Number of dead ticks)]×100

[6] = 0.01 mg/seedling, sensitive strain
[7] = 0.01 mg/seedling, strain (II) (Fukuoka 2005, field-collected)
[8] = 0.005 mg/seedling, all the strains
[9] = 0.01 mg/seedling, field-collected strain (Kumamoto 2006, resistant)

Row | SMILES | mortality at 500 ppm (Plutella xylostella) | mortality at 500 ppm (Aphis gossypii) | mortality at 100 ppm (Laodelphax striatellus [1]) | also measured
1 | O=C(N=c1ccccn1Cc1cnc(Cl)c(F)c1)C(F)(F)F [Compound 2, N-[1-((6-Chloro-5-fluoropyridin-3-yl)methyl)pyridin-2(1H)-ylidene]-2,2,2-trifluoroacetamide] | 100% | 100% | 100% | Mortality rate (Nilaparvata lugens; [6]): 72%; Mortality rate (Nilaparvata lugens; [7]): 70%
2 | O=C(N=c1ccccn1Cc1ccc(Cl)nc1)C(F)(F)Cl [Compound 4, 2-chloro-N-[1-((6-Chloropyridin-3-yl)methyl)pyridin-2(1H)-ylidene]-2,2-difluoroacetamide] | 100% | 100% | 100% | –
3 | O=C(N=c1ccccn1Cc1ccc(Cl)nc1)C(Cl)(Cl)Cl [Compound 5, 2,2,2-Trichloro-N-[1-((6-chloropyridin-3-yl)methyl)pyridin-2(1H)-ylidene]acetamide] | 100% | 95% | 75% | –
4 | O=C(N=c1ccccn1Cc1ccc(Cl)nc1)C(F)(F)F [Compound 1, N-[1-((6-Chloropyridin-3-yl)methyl)pyridin-2(1H)-ylidene]-2,2,2-trifluoroacetamide] | 100% | 100% | 100% | Mortality rate (Nilaparvata lugens; [8]): ≥ 90%; Mortality rate (Nilaparvata lugens; 0.05 mg/seedling, all the strains): 100%; Mortality rate (Laodelphax striatellus [2]; [8]): ≥ 90%; total area percentage of metabolites [3]: 0.08; mortality at 10 ppm [4]: ≥ 80%; mortality at 200 ppm [4]: ≥ 80%; blood-sucking inhibition rate [5]: 91%
5 | O=C(N=c1ccccn1Cc1ccc(Br)nc1)C(F)(F)F [Compound 3, N-[1-((6-Bromopyridin-3-yl)methyl)pyridin-2(1H)-ylidene]-2,2,2-trifluoroacetamide] | 100% | 100% | 100% | Mortality rate (Laodelphax striatellus [2]; [9]): 90%; Mortality rate (Laodelphax striatellus [2]; [6]): 100%
6 | O=[N+]([O-])NC1=NCCN1Cc1ccc(Cl)nc1 [imidacloprid, reference compound] | – | – | – | Mortality rate (Nilaparvata lugens; 0.05 mg/seedling, sensitive strain): 100%; Mortality rate (Nilaparvata lugens; 0.05 mg/seedling, strain (I) (Kumamoto 2007, resistant strain)): 40%; Mortality rate (Nilaparvata lugens; 0.05 mg/seedling, strain (II) (Fukuoka 2005, field-collected)): 60%; Mortality rate (Laodelphax striatellus [2]; [9]): 50%; Mortality rate (Laodelphax striatellus [2]; [6]): 100%; total area percentage of metabolites [3]: 2.55; mortality at 10 ppm [4]: 4%
7 | O=C(N=c1ccccn1Cc1cnc(Cl)nc1)C(F)(F)F [Compound 6, N-[1-((2-Chloropyrimidin-5-yl)methyl)pyridin-2(1H)-ylidene]-2,2,2-trifluoroacetamide] | 100% | 100% | 100% | –
8 | N#Cc1nn(-c2c(Cl)cc(C(F)(F)F)cc2Cl)c(N)c1[S+]([O-])C(F)(F)F (stereo not shown) [fipronil] | – | – | – | Mortality rate (Laodelphax striatellus [2]; [9]): 70%; Mortality rate (Laodelphax striatellus [2]; [6]): 100%
9 | O=C(N=c1ccccn1Cc1ccc(Cl)nc1)C(F)(F)C(F)(F)F [Compound 7, N-[1-((6-Chloropyridin-3-yl)methyl)pyridin-2(1H)-ylidene]-2,2,3,3,3-pentafluoropropanamide] | 100% | 100% | 100% | –
10 | O=C(N=c1ccccn1Cc1ccc(F)nc1)C(F)(F)F [Compound 19, N-[1-((6-fluoropyridin-3-yl)methyl)pyridin-2(1H)-ylidene]-2,2,2-trifluoroacetamide] | 100% | 100% | 100% | Mortality rate (Nilaparvata lugens; [6]): 100%; Mortality rate (Nilaparvata lugens; [7]): 93%
11 | O=C(N=c1ccccn1Cc1ccc(Cl)nc1)C(F)F [Compound 8, N-[1-((6-Chloropyridin-3-yl)methyl)pyridin-2(1H)-ylidene]-2,2-difluoroacetamide] | 100% | 100% | 100% | –
